Measurements from patent publication US9718790B2, “Triazine derivative and pharmaceutical composition having an analgesic activity comprising the same” (SHIONOGI & CO., LTD., priority 2010, dated 2017).

Target: human P2X3 receptor (Homo sapiens (Human), UniProt P56373)
Assay: Evaluation of human P2X3 receptor inhibitory activity (Fluo-3 calcium fluorescence, FDSS 3000, ATP stimulation);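 also: stimulus was 50 nM ATP with fluorescence followed for 3 min, and the response per well was peak post-ATP fluorescence divided by the reading at measurement start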
Type: cell-based
Conditions: C6BU-1 cells stably expressing human P2X3 receptor

human P2X3 receptor, sequence (P56373 whole entry): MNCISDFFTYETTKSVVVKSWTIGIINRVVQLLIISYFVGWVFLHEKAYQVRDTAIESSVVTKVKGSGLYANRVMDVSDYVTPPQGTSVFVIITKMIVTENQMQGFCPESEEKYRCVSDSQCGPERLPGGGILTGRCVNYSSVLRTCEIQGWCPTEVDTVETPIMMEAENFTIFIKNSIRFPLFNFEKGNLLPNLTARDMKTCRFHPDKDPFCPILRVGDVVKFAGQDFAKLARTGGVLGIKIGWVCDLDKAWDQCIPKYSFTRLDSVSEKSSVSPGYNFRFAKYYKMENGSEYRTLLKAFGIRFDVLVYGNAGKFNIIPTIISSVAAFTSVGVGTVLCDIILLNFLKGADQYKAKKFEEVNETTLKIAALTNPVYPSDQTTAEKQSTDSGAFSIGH

Structure (SMILES)	IC50 [µM]
COC(=O)[C@H](C)[C@H](C)n1c(=O)[nH]/c(=N\c2ccc(OC(C)C)c(Br)c2)n(Cc2ccc(C)cc2)c1=O [Compound I-1307]	0.007
Cc1ccc(Cn2c(=O)n(CC3(C(=O)O)CC3)c(=O)[nH]/c2=N\c2ccc(CC(C)C)c(Cl)c2)cc1 [Compound I-1451]	0.005
COC(=O)[C@@H](C)Cn1c(=O)[nH]/c(=N\c2ccc(OC(F)F)c(F)c2)n(Cc2ccc(Cl)cc2)c1=O [Compound I-0655]	0.067
Cc1ccc(Cn2c(=O)n(C[C@H](C)C(=O)O)c(=O)[nH]/c2=N\c2ccc(Oc3ccnc(C)c3)cc2)cc1 [Compound I-1269]	0.008
Cc1nc2ccc(/N=c3\[nH]c(=O)n(C[C@H](C)C(=O)O)c(=O)n3Cc3ccc(Cl)cc3)cc2s1 [Compound I-1349]	0.015
CCc1nc2ccc(/N=c3\[nH]c(=O)n(CCCCC(=O)OC)c(=O)n3Cc3ccc(Cl)cc3)cc2s1 [Compound I-2183]	0.001
CCn1c(=O)[nH]/c(=N\c2ccc(Oc3ccnc(C(=O)OC)c3)cc2)n(CC2CCC(C)(C)CC2)c1=O [Compound I-2205]	0.009
Cc1cc(Oc2ccc(/N=c3\[nH]c(=O)n(CC(CO)CO)c(=O)n3Cc3ccc(Cl)cc3)cc2)ccn1 [Compound I-1954]	0.005
COC(=O)[C@@H](C)[C@@H](C)n1c(=O)[nH]/c(=N\c2ccc(OC3CCC3)cc2)n(Cc2ccc(Cl)cc2)c1=O [Compound I-1452]	0.014
Cc1cc(/N=c2\[nH]c(=O)n(Cc3cccnc3OCCO)c(=O)n2Cc2ccc(Cl)cc2)ccc1OC(C)C [Compound I-0715]	0.013
O=c1[nH]/c(=N\c2ccc(Oc3cncc(CO)c3)cc2)n(Cc2ccc(Cl)cc2)c(=O)n1CCO [Compound I-2079]	0.038
CC(C)Oc1ccc(/N=c2\[nH]c(=O)n(CCNC(=N)N)c(=O)n2Cc2ccc(Cl)cc2)cc1F [Compound I-0659, 1-(4-chlorobenzyl)-6-(3-fluoro-4-isopropoxyphenylimino)-3-(4-imino-4-amino-3-azabutyl)-1,3,5-triazinane-2,4-dion]	0.134
CCn1c(=O)[nH]/c(=N\c2ccc(Oc3ccnc(C(N)=O)c3)cc2)n(CC2CCC3(CC2)CC3)c1=O [Compound I-2176]	0.004
CC(C)Oc1ccc(/N=c2\[nH]c(=O)n(CC(=O)N3CCN(C(=O)OC(C)(C)C)CC3)c(=O)n2Cc2ccc(Cl)cc2)cc1Cl [Compound I-0740]	0.221
COC(=O)[C@H](C)[C@H](C)n1c(=O)[nH]/c(=N\c2ccc(CC(C)C)c(OC)c2)n(Cc2ccc(Cl)cc2)c1=O [Compound I-1363]	0.056
CCOc1ccc(/N=c2\[nH]c(=O)n(CCC(=O)O)c(=O)n2Cc2ccc(C)cc2)c(F)c1F [Compound I-2052]	0.068
C[C@@H](Oc1ccc(/N=c2\[nH]c(=O)n(CCC(N)=O)c(=O)n2Cc2ccc(Cl)cc2)cc1)C(F)(F)F [Compound I-1956]	0.034
CCn1c(=O)[nH]/c(=N\c2ccc(Oc3cc(C(=O)O)n[nH]3)cc2)n(Cc2ccc(Cl)cc2)c1=O [Compound I-2194]	0.052
COC(=O)[C@@H](C)Cn1c(=O)[nH]/c(=N\c2ccc(OC(C)C)c(Cl)c2)n(Cc2ccccc2)c1=O [Compound I-0763]	0.08
Cc1ccc(Oc2ccc(/N=c3\[nH]c(=O)n(CC(N)=O)c(=O)n3Cc3ccc(Cl)cc3)cc2)cn1 [Compound I-1944]	0.011
CNC(=O)c1cc(Oc2ccc(/N=c3\[nH]c(=O)n(C)c(=O)n3Cc3ccc(C)cc3)cc2)ccn1 [Compound I-2012]	0.009
Cc1ccc(Cn2c(=O)n(C[C@H](C)C(=O)O)c(=O)[nH]/c2=N\c2cnc(Oc3ccccc3)c(Cl)c2)cc1 [Compound I-1476]	0.262
Cc1oc2ccc(/N=c3\[nH]c(=O)n(CCCOC4CCCCO4)c(=O)n3Cc3ccc(Cl)cc3)cc2c1C (stereo not shown) [Compound I-2073]	0.01
CCn1c(=O)[nH]/c(=N\c2ccc(Oc3cncc(C(=O)O)c3)cc2)n(CC2CCC(C)(C)CC2)c1=O [Compound I-2207]	0.069
COC(=O)NCCCn1c(=O)[nH]/c(=N\c2ccc(OC(C)C)c(F)c2)n(Cc2ccc(Cl)cc2)c1=O [Compound I-0608]	0.006
CC1CCC(Cn2c(=O)n(CCC(N)=O)c(=O)[nH]/c2=N\c2ccc(OC(C)C)c(Cl)c2)CC1 (stereo not shown) [Compound I-2020]	0.006

Same assay, conditions: C6BU-1 cells stably expressing human P2X3 receptor, Fluo-3 fluorescence, FDSS 3000

Structure (SMILES)	IC50 [µM]
C=C(C)c1ccc(Cn2c(=O)n(C[C@H](C)C(=O)OC)c(=O)[nH]/c2=N\c2ccc(OC(C)C)c(C)c2)cc1 [Compound I-0995]	0.276
CCOC(=O)CCn1c(=O)[nH]/c(=N\c2ccc(OC(C)C)c(F)c2)n(CC2C[C@H]3CC[C@@H]2C3)c1=O (stereo partly shown) [Compound I-1860]	0.15
CCOC(=O)C1(Cn2c(=O)[nH]/c(=N\c3ccc(OC(C)C)cc3)n(Cc3ccc(Cl)cc3)c2=O)CC1 [Compound I-0987]	0.015
COC(=O)[C@H](C)[C@H](C)n1c(=O)[nH]/c(=N\c2ccc(OC(C)C)c(C)c2)n(Cc2ccc(C)cc2)c1=O [Compound I-0927]	0.021
COC(=O)Cn1c(=O)[nH]/c(=N\c2ccc(Oc3ccc(C)nc3)cc2)n(Cc2ccc(Cl)cc2)c1=O [Compound I-1904]	0.008
C[C@@H](Oc1ccc(/N=c2\[nH]c(=O)n(CCCO)c(=O)n2Cc2ccc(Cl)cc2)cc1)C(F)(F)F [Compound I-1620]	0.014
CC(C)Oc1ccc(/N=c2\[nH]c(=O)n(CC3(C(=O)O)COC3)c(=O)n2Cc2ccc(Cl)cc2)cc1Cl [Compound I-1011]	0.021
COc1ccc(Oc2ccc(/N=c3\[nH]c(=O)n(CC(=O)NCCO)c(=O)n3Cc3ccc(Cl)cc3)cc2)cn1 [Compound I-1858]	0.005
CCc1ccc(Cn2c(=O)n(C[C@H](C)C(=O)OC)c(=O)[nH]/c2=N\c2ccc(OC(C)C)cc2)cc1 [Compound I-1133]	0.051
CCC(CC)Oc1ccc(/N=c2\[nH]c(=O)n(C[C@H](C)C(=O)OC)c(=O)n2Cc2ccc(C)cc2)cc1 [Compound I-1048]	0.038
CCc1ccc(Cn2c(=O)n(C[C@H](C)C(=O)O)c(=O)[nH]/c2=N\c2ccc(OC(C)C)c(C)c2)cc1 [Compound I-0898, (S)-1-(4-ethylbenzyl)-6-(3-mehyl-4-isopropoxyphenylimino)-3-(2-hydroxycarbonylpropyl)-1,3,5-triazinane-2,4-dion]	0.02
CC(C)n1c2c(c3cc(/N=c4\[nH]c(=O)n([C@@H](C)[C@@H](C)C(=O)O)c(=O)n4Cc4ccc(Cl)cc4)ccc31)CCCC2 [Compound I-1770]	0.788
C[C@@H](C(=O)O)[C@H](C)n1c(=O)[nH]/c(=N\c2ccc3c(c2)OCC(=O)N3)n(Cc2ccc(Cl)cc2)c1=O [Compound I-1786]	0.621
O=C(O)CCn1c(=O)[nH]/c(=N\c2ccc(OCc3cccnc3)cc2)n(Cc2ccc(Cl)cc2)c1=O [Compound I-1632]	0.389
Cc1ccc(Cn2c(=O)n([C@@H](C)[C@@H](C)C(=O)O)c(=O)[nH]/c2=N\c2ccc(OC(C)C)c(F)c2)cc1 [Compound I-0974]	0.029
CC[C@@H](C)Oc1ccc(/N=c2\[nH]c(=O)n(C[C@H](C)C(=O)OC)c(=O)n2Cc2ccc(C)cc2)cc1Cl [Compound I-1015]	0.007
CCOC(=O)CCn1c(=O)[nH]/c(=N\c2cccc(S(F)(F)(F)(F)F)c2)n(Cc2ccc(Cl)cc2)c1=O [Compound I-1646]	0.043

Same assay, conditions: human P2X3 receptor, Test Example 1

Structure (SMILES)	IC50 [µM]
O=c1[nH]/c(=N\c2ccc(Oc3cccnn3)cc2)n(Cc2ccc(Cl)cc2)c(=O)n1CC(CO)CO [Compound I-2692]	0.008
NC(=O)c1ccc(Oc2ccc(/N=c3\[nH]c(=O)n(C[C@H](O)CO)c(=O)n3Cc3ccc(Cl)cc3)cc2)cc1 [Compound I-2546]	0.006
Cc1ccc(Cn2c(=O)n(C[C@H](C)C(=O)O)c(=O)[nH]/c2=N\c2ccc(OCC(C)C)cc2)cc1 [Compound I-0827]	0.026
Cc1ccc(Cn2c(=O)n(C)c(=O)[nH]/c2=N\c2ccc(Oc3ccc(C(=O)O)nn3)cc2)cc1 [Compound I-2382]	0.054
COC(=O)CCn1c(=O)[nH]/c(=N\c2ccc(Oc3cccc(C(N)=O)n3)cc2)n(Cc2ccc(C)cc2)c1=O [Compound I-2682]	0.002
COCCn1c(=O)[nH]/c(=N\c2ccc(Oc3cccc(C#N)n3)cc2)n(Cc2ccc(Cl)cc2)c1=O [Compound I-2538]	0.003
CCn1c(=O)[nH]/c(=N\c2ccc(Oc3cc(C(=O)O)ccn3)cc2)n(Cc2ccc(C)cc2)c1=O [Compound I-2303]	0.007
CCn1c(=O)[nH]/c(=N\c2ccc(Oc3cccc(C#N)c3)cc2)n(Cc2ccc(Cl)cc2)c1=O [Compound I-2305, 1-(4-chlorobenzyl)-6-[4-(3-cyanophenoxy)phenylimino]-3-ethyl-1,3,5-triazinane-2,4-dion]	0.004
CCn1c(=O)[nH]/c(=N\c2ccc(Oc3cccc(C(=O)O)n3)c(OC)c2)n(Cc2ccc(Cl)cc2)c1=O [Compound I-2423]	0.007
CCn1c(=O)[nH]/c(=N\c2ccc(Oc3cccc(CCC(=O)OC)c3)cc2)n(Cc2ccc(Cl)cc2)c1=O [Compound I-2225]	0.061
Cc1ccc(Cn2c(=O)n(C[C@H](C)C(=O)O)c(=O)[nH]/c2=N\c2ccc(Oc3ccc(O)nc3)cc2)cc1 [Compound I-1536]	0.024
CCOc1ccc(/N=c2\[nH]c(=O)n([C@H](C)CC(=O)O)c(=O)n2Cc2ccc(C)cc2)cc1Cl [Compound I-0879]	0.058
CCOC(=O)Cn1c(=O)[nH]/c(=N\c2ccc(Oc3cccc(F)n3)cc2)n(Cc2ccc(Cl)cc2)c1=O [Compound I-2562]	0.004
CC1(Cn2c(=O)[nH]/c(=N\c3ccc(OCC4CC4)cc3)n(Cc3ccc(Cl)cc3)c2=O)COC(C)(C)OC1 [Compound I-2615]	0.007
O=c1[nH]/c(=N\c2ccc(Oc3ccon3)cc2)n(Cc2ccc(F)cc2)c(=O)n1CCCO [Compound I-2397]	0.039
CC[C@H](C)n1c(=O)[nH]/c(=N\c2ccc(Oc3ccnc(C(=O)O)c3)cc2)n(Cc2ccc(Cl)cc2)c1=O [Compound I-2480]	0.006
Cc1ccc(Cn2c(=O)n(C)c(=O)[nH]/c2=N\c2ccc(Oc3cnc(C(=O)O)cn3)cc2)cc1 [Compound I-2385]	0.013
O=c1[nH]/c(=N\c2ccc(Oc3ncccn3)cc2)n(Cc2ccc(Cl)cc2)c(=O)n1C[C@H](O)CO [Compound I-2418]	0.012
